Assay results from PMC4830539, “Chemical Inhibition of Histone Deacetylases 1 and 2 Induces Fetal Hemoglobin through Activation of GATA2” (PLoS ONE, 2016).

What was measured:
GATA2, GATA1, KLF1 mRNA = experiment: Gene expression of candidate HBG modulators by QPCR in CS1; format: cell-based, human; details: CS1, 1 μM
Method: Globin mRNA was detected using quantitative real time PCR (QPCR). Total RNA was isolated using RNeasy Micro Kit (Qiagen) with on-column DNase digestion, converted into cDNA using the High Capacity RNA-to-cDNA Kit (Life Technologies), diluted 5-fold with water, and 1 μL used as a template for QPCR. The percent of each β-like globin transcript was determined using the absolute standard curve method. Briefly, DNA corresponding to the full length transcript for each globin isoform was cloned into […] plasmid (GenScript, Piscataway NJ). Each plasmid was validated against each QPCR probe to ensure specificity. Plasmids were pooled at equal molar concentration and a dilution series spanning 8-logs was utilized as the standard curve. Throughout this work, ‘HBG mRNA (%)’ and ‘percent HBG mRNA’ refers to the abundance of HBG mRNA expressed relative to the sum of the abundances of all β-like globin transcripts, i.e. [HBG/(HBB+HBD+HBG+HBE)]*100. In cases where the transcript of interest was compared against the housekeeping gene ACTB, the comparative Ct ([…]) method was utilized. Probes used for QPCR: HBB (Hs00747223_g1), HBD (Hs00426283_m1), HBG (Hs00361131_g1, detects both HBG1 and HBG2), HBE (Hs00362215_g1), GATA1 (Hs01085823_m1), GATA2 (Hs00231119_m1), KLF1 (Hs00610592_m1), MYB (Hs00920556_m1), SOX6 (Hs00264525_m1), BCL11A (Hs01093197_m1), and ACTB (Hs99999903_m1). […]

[1] = test system: gene expression in BM cells; experiment: Gene expression profiling (Affymetrix GeneChip) of erythroid progenitors; format: cell-based, human
Method: BM cells were cultured in CS1 expansion media for 7 days, and then shifted to CS1 differentiation media containing vehicle or 1 μM ACY-957 for 5 days. Total RNA was isolated from cells at day 5 of differentiation using RNeasy Micro Kit with on-column DNase digestion (Qiagen). This experiment was performed in triplicate using cells from three independent donors on separate days to obtain vehicle treated (n = 3) and ACY-957 treated (n = 3) samples for GeneChip analysis. GeneChip sample preparation, hybridization, and data acquisition was performed by the Covance Genomics Laboratory (Seattle, WA) using Affymetrix GeneChip PrimeView™ Human Gene Expression Array according to manufacturer’s protocol. […] For the analysis of HDAC1 or HDAC2 knockdown in erythroblasts, raw gene expression data was downloaded from NCBI GEO website, series GSE22366 [21].
Data analysis was performed using BRB-ArrayTools. GSE60791 and GSE22366 data series were imported and analyzed independently. Raw data CEL files were processed with the robust multi-chip average (RMA) algorithm. Fold changes were derived from the geometric mean of intensity values in each treatment class. In the case of GSE60791, P-values were generated between ACY-957 and vehicle treated samples using a paired t test with random variance model applied. In the case of GSE22366, P-values were generated between luciferase control and HDAC1 or HDAC2 knockdown samples using a two-sample t test with random variance model applied.
Duplicate gene symbols were removed by selecting the probe set with the lowest P-value. Next, these 4 gene sets were appended to the Molecular Signatures Database collection of Chemical and Genetic Perturbations. This database contained approximately 2777 gene sets, each containing at least 15 genes and no more than 10000 genes. Finally, log base 2 mRNA data from ACY-957 or vehicle treated cells was loaded into the publically available GSEA software from the Broad Institute and queried against the database of gene sets described above. ACY-957 phenotype was compared against vehicle phenotype by first collapsing the data set to gene symbols based on maximum probe signal and then using a weighted, signal-to-noise metric for ranking genes. Gene set permutations were performed to generate nominal P-values for each gene set.
We interrogated the mechanism through which HDAC1/2 inhibition induces HBG by performing gene expression profiling on ACY-957 or vehicle treated cells in CS1. Because HDAC inhibition prevented cells from fully upregulating GYPA (Fig 4) we isolated RNA at day 5 of differentiation, a time point prior to the observed differentiation block.

[2] = set-up: method as in earlier work; details: rat; cited from earlier work
[3] = test system: histone acetylation at GATA2 regulatory regions; experiment: ChIP-QPCR of histone acetylation at GATA2 regulatory regions; format: cell-based, human; details: -1.8 kb GATA2 regulatory region, 1 μM
Method: Cells were fixed in 1% formaldehyde for 15 minutes at room temperature. Crosslinking reaction was extinguished by adding glycine to 125 mM. Cells were washed three times in PBS, 0.5% lgepal CA-630, 1 mM phenylmethanesulfonyl fluoride (PMSF). Cell pellets were snap frozen on dry ice and stored at -80°C.
For ChIP-QPCR experiments, chromatin (11 μg) from vehicle (n = 1) or ACY-957 (n = 1) treated cells was fragmented by sonication, then immunoprecipitated (n = 3, each) using antibodies against histone H3 lysine 9 acetylation (3 μg, ab10812, Abcam), histone H2B lysine 5 acetylation (6 μL, ab40886, Abcam), histone H3 lysine 27 acetylation (3 μg, ab4729, Abcam), or GATA2 (6 μg, SC-9008, Santa Cruz). Specific genomic regions within immunoprecipitated and input DNA was detected using SYBR green QPCR with the following primer pairs:
To investigate how HDAC1/2 inhibition drives GATA2 activation, we performed a series of chromatin immunoprecipitation (ChIP) experiments. BM cells were expanded in CS1, and then shifted to CS1 differentiation media in the presence of vehicle or 1 μM ACY-957 for several days, yielding erythroid progenitor cells with TFRC/GYPA differentiation profiles similar to those used for GeneChip experiments and unaffected by compound treatment (Fig 8A and 8B). […]

[4] = treatment versus control, 1 μM, day 5

## Nc1ccc(-c2cccs2)cc1NC(=O)c1ccc2nc(N3CCNCC3)ccc2c1 [ACY-957]
GATA2, GATA1, KLF1 mRNA; 4 days
  GATA1 and KLF1 mRNA: unaffected
GATA2, GATA1, KLF1 mRNA; day 4
  GATA2 mRNA increase relative to control cells: 3.3 fold
[1]; GeneChip, 1 μM, day 5
  BCL11A down-regulated: 1.3 fold
  GATA2 up-regulated: 2.8 fold
  SOX6 down-regulated: 2.5 fold
  expression of HBG repressors MYB and KLF1: unaffected
[1]; gene expression profiling of erythroid progenitors
  GATA2 induced (abstract): greater than 3 fold
[1]; [4]
  BCL11A Ratio, candidate gene expression by GeneChip: 0.77
  GATA1 Ratio, candidate gene expression by GeneChip: 1.0
  GATA2 Ratio, candidate gene expression by GeneChip: 2.8
  KLF1 Ratio, candidate gene expression by GeneChip: 0.87
  MYB Ratio, candidate gene expression by GeneChip: 1.1
  SOX6 Ratio, candidate gene expression by GeneChip: 0.41
[2]
  pharmacokinetic properties: favorable
[3]
  maximum increases in histone acetylation (H3K9ac, H2BK5ac, H3K27ac): 4- to 8 fold
